Reference: ChEMBL document CHEMBL1140396, “Novel C2-C3' N-peptide linked macrocyclic taxoids. Part 1: Synthesis and biological activities of docetaxel analogues with a peptide side chain at C3'” (Bioorg Med Chem Lett, 2005)

Experiments:
[1] = test system: KB; experiment: Concentration that inhibits cell proliferation (KB cell line) after 72 h of incubation; assay type: functional, cell-based; settings: Homo sapiens
[2] = Concentration that inhibits the rate of cold-induced microtubule disassembly; assay type: functional
[3] = Concentration that inhibits the rate of cold-induced microtubule disassembly; Inactive; assay type: functional

Row | Compound | IC50 [1] | IC50 [2] | IC50 [3]
1 | COC(=O)[C@H](CCSC)NC(=O)[C@H](Cc1ccccc1)NC(=O)[C@@H](NC(=O)N[C@@H](c1ccccc1)[C@@H](O)C(=O)O[C@H]1C[C@@]2(O)[C@@H](OC(=O)c3ccccc3)C3C(C(=O)[C@H](O)C(=C1C)C2(C)C)[C@@H](O)CC1OC[C@]13OC(C)=O)C(C)C (some centres undefined) | 1100 nM | 2600 nM | –
2 | CC(=O)O[C@@]12COC1C[C@H](O)C1C(=O)[C@H](O)C3=C(C)[C@@H](OC(=O)[C@H](O)[C@@H](NC(=O)N[C@H](C(=O)N4CCC[C@H]4C(=O)NCC(=O)NCC(=O)O)C(C)C)c4ccccc4)C[C@@](O)([C@@H](OC(=O)c4ccccc4)C12)C3(C)C (some centres undefined) | > 10000 nM | 500 nM | –
3 | CC(=O)O[C@@]12COC1C[C@H](O)C1C(=O)[C@H](O)C3=C(C)[C@@H](OC(=O)[C@H](O)[C@@H](NC(=O)N[C@H](C(=O)O)C(C)C)c4ccccc4)C[C@@](O)([C@@H](OC(=O)c4ccccc4)C12)C3(C)C (some centres undefined) | 670 nM | 800 nM | –
4 | CC(=O)O[C@@]12COC1C[C@H](O)C1C(=O)[C@H](O)C3=C(C)[C@@H](OC(=O)[C@H](O)[C@@H](NC(=O)N[C@H](C(=O)N4CCC[C@H]4C(=O)NCC(=O)OCc4ccccc4)C(C)C)c4ccccc4)C[C@@](O)([C@@H](OC(=O)c4ccccc4)C12)C3(C)C (some centres undefined) | 100 nM | 400 nM | –
5 | CC(=O)O[C@@]12COC1C[C@H](O)C1C(=O)[C@H](O)C3=C(C)[C@@H](OC(=O)[C@H](O)[C@@H](NC(=O)N[C@H](C(=O)N4CCC[C@H]4C(=O)OCc4ccccc4)C(C)C)c4ccccc4)C[C@@](O)([C@@H](OC(=O)c4ccccc4)C12)C3(C)C (some centres undefined) | 50 nM | 500 nM | –
6 | CC(=O)O[C@@]12COC1C[C@H](O)C1C(=O)[C@H](O)C3=C(C)[C@@H](OC(=O)[C@H](O)[C@@H](NC(=O)N[C@H](C(=O)N4CCC[C@H]4C(=O)O)C(C)C)c4ccccc4)C[C@@](O)([C@@H](OC(=O)c4ccccc4)C12)C3(C)C (some centres undefined) | 4500 nM | 1700 nM | –
7 | CC(=O)O[C@@]12COC1C[C@H](O)C1C(=O)[C@H](O)C3=C(C)[C@@H](OC(=O)[C@H](O)[C@@H](NC(=O)N[C@H](C(=O)N4CCC[C@H]4C(=O)NCC(=O)O)C(C)C)c4ccccc4)C[C@@](O)([C@@H](OC(=O)c4ccccc4)C12)C3(C)C (some centres undefined) | > 10000 nM | 600 nM | –
8 | CC(=O)O[C@@]12COC1C[C@H](O)C1C(=O)[C@H](O)C3=C(C)[C@@H](OC(=O)[C@H](O)[C@@H](NC(=O)N[C@H](C(=O)OCc4ccccc4)C(C)C)c4ccccc4)C[C@@](O)([C@@H](OC(=O)c4ccccc4)C12)C3(C)C (some centres undefined) | 4 nM | 800 nM | –
9 | CC(=O)O[C@@]12COC1C[C@H](O)C1C(=O)[C@H](O)C3=C(C)[C@@H](OC(=O)[C@H](O)[C@@H](NC(=O)NCC(=O)N[C@@H](CO)C(=O)N[C@@H](Cc4ccc(O)cc4)C(=O)O)c4ccccc4)C[C@@](O)([C@@H](OC(=O)c4ccccc4)C12)C3(C)C (some centres undefined) | 1050 nM | 1000 nM | –
10 | CC(=O)O[C@@]12COC1C[C@H](O)C1C(=O)[C@H](O)C3=C(C)[C@@H](OC(=O)[C@H](O)[C@@H](NC(=O)NCC(=O)N[C@@H](COCc4ccccc4)C(=O)N[C@@H](Cc4ccc(OCc5ccccc5)cc4)C(=O)OCc4ccccc4)c4ccccc4)C[C@@](O)([C@@H](OC(=O)c4ccccc4)C12)C3(C)C (some centres undefined) | 90 nM | – | Not Active
11 | CC(=O)O[C@@]12COC1C[C@H](O)C1C(=O)[C@H](O)C3=C(C)[C@@H](OC(=O)[C@H](O)[C@@H](NC(=O)OC(C)(C)C)c4ccccc4)C[C@@](O)([C@@H](OC(=O)c4ccccc4)C12)C3(C)C (some centres undefined) | 1 nM | 500 nM | –
12 | CC(=O)O[C@@]12COC1C[C@H](O)C1C(=O)[C@H](O)C3=C(C)[C@@H](OC(=O)[C@H](O)[C@@H](NC(=O)N[C@H](C(=O)N4CCC[C@H]4C(=O)NCC(=O)NCC(=O)OCc4ccccc4)C(C)C)c4ccccc4)C[C@@](O)([C@@H](OC(=O)c4ccccc4)C12)C3(C)C (some centres undefined) | 4000 nM | 300 nM | –
